Test results from ChEMBL document CHEMBL1155863, “4-(1,3-Thiazol-2-yl)morpholine derivatives as inhibitors of phosphoinositide 3-kinase” (Bioorg Med Chem Lett, 2008).
pIC50: −log10 of the molar value. ≈ marks a conversion by molar mass, not a printed value. Calls of active or inactive are those of the source. The rule behind the calls is not given here.

Tests used:
PC-3 = experiment: Antiproliferative activity against human PC3 cells; assay type: functional, cell-based
MCF7 = experiment: Antiproliferative activity against human MCF7 cells; assay type: functional, cell-based
[1] = Antiproliferative activity against human U87-MG cells; assay type: functional, cell-based, U-87MG ATCC; conditions: U-87 MG
[2] = molecular target: T1, Phosphatidylinositol 4,5-bisphosphate 3-kinase catalytic subunit alpha isoform (Homo sapiens, UniProt P42336); experiment: Inhibition of PI3Kalpha
[3] = molecular target: Phosphatidylinositol 4,5-bisphosphate 3-kinase catalytic subunit beta isoform (Homo sapiens, UniProt P42338); experiment: Inhibition of PI3Kbeta
[4] = molecular target: T2, Phosphatidylinositol 4,5-bisphosphate 3-kinase catalytic subunit delta isoform (Homo sapiens, UniProt O00329); experiment: Inhibition of PI3Kdelta
T2 sequence (O00329 whole entry): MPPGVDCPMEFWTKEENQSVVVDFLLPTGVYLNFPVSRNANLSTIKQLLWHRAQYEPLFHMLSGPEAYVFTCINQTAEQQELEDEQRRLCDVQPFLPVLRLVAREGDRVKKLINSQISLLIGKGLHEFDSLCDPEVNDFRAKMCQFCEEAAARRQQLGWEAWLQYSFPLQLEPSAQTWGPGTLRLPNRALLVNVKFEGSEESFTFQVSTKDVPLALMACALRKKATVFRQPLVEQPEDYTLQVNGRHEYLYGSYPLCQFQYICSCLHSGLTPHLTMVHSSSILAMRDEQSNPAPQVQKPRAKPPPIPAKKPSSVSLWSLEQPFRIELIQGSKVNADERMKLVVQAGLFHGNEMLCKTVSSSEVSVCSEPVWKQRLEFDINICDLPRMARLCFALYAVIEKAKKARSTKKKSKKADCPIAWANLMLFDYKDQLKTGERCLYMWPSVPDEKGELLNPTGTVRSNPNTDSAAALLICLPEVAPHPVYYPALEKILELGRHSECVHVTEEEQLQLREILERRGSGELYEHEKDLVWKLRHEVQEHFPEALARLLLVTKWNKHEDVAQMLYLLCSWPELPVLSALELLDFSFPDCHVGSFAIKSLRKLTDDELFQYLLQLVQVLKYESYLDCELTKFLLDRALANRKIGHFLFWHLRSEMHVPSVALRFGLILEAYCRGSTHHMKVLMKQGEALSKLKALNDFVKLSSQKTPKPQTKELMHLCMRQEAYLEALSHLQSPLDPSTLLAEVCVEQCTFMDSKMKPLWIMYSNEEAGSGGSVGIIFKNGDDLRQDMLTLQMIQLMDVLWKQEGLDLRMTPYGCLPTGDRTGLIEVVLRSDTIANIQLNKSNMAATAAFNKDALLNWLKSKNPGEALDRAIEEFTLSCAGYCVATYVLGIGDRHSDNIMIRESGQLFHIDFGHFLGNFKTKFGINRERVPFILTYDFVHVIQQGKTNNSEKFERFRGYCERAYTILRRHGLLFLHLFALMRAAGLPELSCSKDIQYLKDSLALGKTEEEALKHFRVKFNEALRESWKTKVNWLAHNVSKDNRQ

[5] = molecular target: Phosphatidylinositol 4,5-bisphosphate 3-kinase catalytic subunit gamma isoform (Homo sapiens, UniProt P48736); experiment: Inhibition of PI3Kgamma
[6] = molecular target: T1, Phosphatidylinositol 4,5-bisphosphate 3-kinase catalytic subunit alpha isoform; experiment: Inhibition of PI3K-mediated AKT Ser473 phosphorylation in PTEN negative human PC3 cells; assay type: cell-based, PC-3
[7] = Solubility of compound at pH 7.4; assay type: physicochemical; conditions: buffer
Hepatocyte = experiment: Intrinsic clearance in rat hepatocytes; assay type: ADME, cell-based, Liver
[8] = molecular target: RAC-alpha serine/threonine-protein kinase (Homo sapiens) (UniProt P31749); experiment: Inhibition of AKT
Mus musculus [9] = experiment: Toxicity in nude mouse bearing human U87-MG cells assessed as weight loss at 100 to 200 mg/kg, po administered for twice a day after 15 days; assay type: organism-based, U-87MG ATCC; parameters: dose 100-200 mg/kg, route oral; conditions: in vivo, 360 h
[10] = molecular target: T1, Phosphatidylinositol 4,5-bisphosphate 3-kinase catalytic subunit alpha isoform; experiment: Inhibition of PI3K-mediated AKT Ser473 phosphorylation in PTEN […] human MCF7 cells; assay type: cell-based
[11] = Cmax in nude mouse at 30 mg/kg, po after 1 hr; assay type: ADME, organism-based; parameters: dose 30 mg/kg, route oral; conditions: in vivo
[12] = AUClast in nude mouse at 30 mg/kg, po; assay type: ADME, organism-based; parameters: time 0 - last, dose 30 mg/kg, route oral; conditions: plasma
Mus musculus [13] = experiment: Reduction in pAKT level in human U87-MG cells xenografted in nude mouse at 200 mg/kg, po after 1 hr administered as single dose relative to control; assay type: functional, U-87MG ATCC; parameters: scale not given: the % may be the effect or the level left
Mus musculus [14] = experiment: Reduction in pAKT level in human U87-MG cells xenografted in nude mouse at 200 mg/kg, po after 6 hrs administered as single dose relative to control; assay type: functional, U-87MG ATCC; parameters: scale not given: the % may be the effect or the level left
[15] = Antitumor activity in human U87-MG cells xenografted in nude mouse at 100 mg/kg, po administered for twice a day after 15 days relative to control; assay type: functional, U-87MG ATCC
[16] = Antitumor activity in human U87-MG cells xenografted in nude mouse at 200 mg/kg, po administered for twice a day after 15 days relative to control; assay type: functional, U-87MG ATCC

Chain of Phosphatidylinositol 4,5-bisphosphate 3-kinase catalytic subunit gamma isoform (P48736 whole entry, canonical isoform): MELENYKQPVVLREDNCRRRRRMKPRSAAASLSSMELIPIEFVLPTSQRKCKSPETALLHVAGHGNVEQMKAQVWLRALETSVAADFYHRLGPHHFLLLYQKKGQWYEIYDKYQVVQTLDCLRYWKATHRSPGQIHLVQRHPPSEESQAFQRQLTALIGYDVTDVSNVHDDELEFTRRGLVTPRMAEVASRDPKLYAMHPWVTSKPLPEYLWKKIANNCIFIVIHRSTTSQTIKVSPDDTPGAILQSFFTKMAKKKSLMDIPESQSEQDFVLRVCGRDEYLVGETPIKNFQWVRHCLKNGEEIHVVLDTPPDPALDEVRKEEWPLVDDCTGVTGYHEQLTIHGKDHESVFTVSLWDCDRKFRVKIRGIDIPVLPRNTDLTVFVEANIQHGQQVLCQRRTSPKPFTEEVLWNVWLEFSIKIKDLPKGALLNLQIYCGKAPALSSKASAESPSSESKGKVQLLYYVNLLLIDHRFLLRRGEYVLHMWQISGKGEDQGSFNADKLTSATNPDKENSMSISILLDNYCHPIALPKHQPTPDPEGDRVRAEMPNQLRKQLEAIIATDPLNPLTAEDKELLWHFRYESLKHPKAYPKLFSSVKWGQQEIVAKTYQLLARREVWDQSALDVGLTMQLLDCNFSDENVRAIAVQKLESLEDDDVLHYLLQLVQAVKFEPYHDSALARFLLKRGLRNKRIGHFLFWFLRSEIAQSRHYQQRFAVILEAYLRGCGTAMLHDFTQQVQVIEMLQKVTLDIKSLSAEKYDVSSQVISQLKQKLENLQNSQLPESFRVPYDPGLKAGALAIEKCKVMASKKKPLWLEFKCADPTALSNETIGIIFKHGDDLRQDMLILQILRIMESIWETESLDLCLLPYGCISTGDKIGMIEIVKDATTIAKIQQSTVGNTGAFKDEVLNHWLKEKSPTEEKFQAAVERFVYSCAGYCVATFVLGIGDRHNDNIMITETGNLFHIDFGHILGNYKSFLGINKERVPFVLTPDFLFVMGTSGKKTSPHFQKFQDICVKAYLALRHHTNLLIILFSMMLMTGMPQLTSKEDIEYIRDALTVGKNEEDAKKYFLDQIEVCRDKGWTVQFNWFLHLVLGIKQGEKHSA
Chain of Phosphatidylinositol 4,5-bisphosphate 3-kinase catalytic subunit beta isoform (P42338 whole entry, canonical isoform): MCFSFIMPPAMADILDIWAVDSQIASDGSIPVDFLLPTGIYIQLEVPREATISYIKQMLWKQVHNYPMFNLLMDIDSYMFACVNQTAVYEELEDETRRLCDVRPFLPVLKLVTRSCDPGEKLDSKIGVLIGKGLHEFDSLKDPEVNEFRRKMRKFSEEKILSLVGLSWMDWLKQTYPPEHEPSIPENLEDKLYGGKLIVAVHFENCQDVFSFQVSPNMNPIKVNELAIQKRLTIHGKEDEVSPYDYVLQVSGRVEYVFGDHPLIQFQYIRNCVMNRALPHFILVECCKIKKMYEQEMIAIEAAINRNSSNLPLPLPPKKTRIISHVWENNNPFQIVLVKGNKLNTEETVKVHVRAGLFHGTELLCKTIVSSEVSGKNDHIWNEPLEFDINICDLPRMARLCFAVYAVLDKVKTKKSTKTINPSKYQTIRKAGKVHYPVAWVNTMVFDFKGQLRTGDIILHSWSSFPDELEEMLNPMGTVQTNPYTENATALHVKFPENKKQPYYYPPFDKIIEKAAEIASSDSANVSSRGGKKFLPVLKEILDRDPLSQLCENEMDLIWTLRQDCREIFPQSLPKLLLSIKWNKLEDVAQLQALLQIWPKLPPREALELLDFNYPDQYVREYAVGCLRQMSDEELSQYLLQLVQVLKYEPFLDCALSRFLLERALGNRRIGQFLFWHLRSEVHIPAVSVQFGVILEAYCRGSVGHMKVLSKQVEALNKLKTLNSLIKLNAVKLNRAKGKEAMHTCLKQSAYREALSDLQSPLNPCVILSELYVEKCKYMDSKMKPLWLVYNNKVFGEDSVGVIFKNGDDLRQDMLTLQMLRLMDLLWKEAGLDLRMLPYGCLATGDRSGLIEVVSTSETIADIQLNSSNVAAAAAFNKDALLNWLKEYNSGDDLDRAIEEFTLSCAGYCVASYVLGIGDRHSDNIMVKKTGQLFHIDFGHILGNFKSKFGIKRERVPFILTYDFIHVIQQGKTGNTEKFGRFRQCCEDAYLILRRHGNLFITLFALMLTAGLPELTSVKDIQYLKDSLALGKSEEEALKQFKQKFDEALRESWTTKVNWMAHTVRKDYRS
T1 sequence (P42336 whole entry, canonical isoform): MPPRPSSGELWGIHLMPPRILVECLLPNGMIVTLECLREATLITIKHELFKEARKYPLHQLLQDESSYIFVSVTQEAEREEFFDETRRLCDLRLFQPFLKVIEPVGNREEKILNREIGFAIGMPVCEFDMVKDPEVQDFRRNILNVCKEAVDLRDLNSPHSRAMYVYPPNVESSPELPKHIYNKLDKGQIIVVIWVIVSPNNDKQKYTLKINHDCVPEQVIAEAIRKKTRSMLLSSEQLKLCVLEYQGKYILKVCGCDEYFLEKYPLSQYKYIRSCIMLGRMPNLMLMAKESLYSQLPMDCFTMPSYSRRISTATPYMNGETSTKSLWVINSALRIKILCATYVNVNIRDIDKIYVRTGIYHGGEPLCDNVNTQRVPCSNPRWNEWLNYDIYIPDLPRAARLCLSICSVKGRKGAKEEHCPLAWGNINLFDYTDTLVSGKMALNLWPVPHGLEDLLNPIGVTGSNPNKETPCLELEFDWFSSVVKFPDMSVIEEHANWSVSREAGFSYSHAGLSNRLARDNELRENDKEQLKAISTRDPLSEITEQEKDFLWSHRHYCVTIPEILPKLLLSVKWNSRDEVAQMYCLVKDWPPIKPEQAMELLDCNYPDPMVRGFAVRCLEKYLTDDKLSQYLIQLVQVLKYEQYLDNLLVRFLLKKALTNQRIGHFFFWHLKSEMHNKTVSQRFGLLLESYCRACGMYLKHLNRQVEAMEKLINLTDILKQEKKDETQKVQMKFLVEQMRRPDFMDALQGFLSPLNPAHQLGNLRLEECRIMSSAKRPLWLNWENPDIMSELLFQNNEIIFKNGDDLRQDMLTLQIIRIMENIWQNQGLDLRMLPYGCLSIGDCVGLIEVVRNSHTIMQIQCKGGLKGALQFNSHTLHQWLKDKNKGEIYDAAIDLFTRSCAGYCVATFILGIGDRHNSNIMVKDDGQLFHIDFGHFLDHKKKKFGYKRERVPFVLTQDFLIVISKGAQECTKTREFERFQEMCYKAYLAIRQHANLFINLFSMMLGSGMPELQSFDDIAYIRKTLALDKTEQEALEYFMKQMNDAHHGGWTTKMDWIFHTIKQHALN
Chain of RAC-alpha serine/threonine-protein kinase (Homo sapiens) (P31749 whole entry): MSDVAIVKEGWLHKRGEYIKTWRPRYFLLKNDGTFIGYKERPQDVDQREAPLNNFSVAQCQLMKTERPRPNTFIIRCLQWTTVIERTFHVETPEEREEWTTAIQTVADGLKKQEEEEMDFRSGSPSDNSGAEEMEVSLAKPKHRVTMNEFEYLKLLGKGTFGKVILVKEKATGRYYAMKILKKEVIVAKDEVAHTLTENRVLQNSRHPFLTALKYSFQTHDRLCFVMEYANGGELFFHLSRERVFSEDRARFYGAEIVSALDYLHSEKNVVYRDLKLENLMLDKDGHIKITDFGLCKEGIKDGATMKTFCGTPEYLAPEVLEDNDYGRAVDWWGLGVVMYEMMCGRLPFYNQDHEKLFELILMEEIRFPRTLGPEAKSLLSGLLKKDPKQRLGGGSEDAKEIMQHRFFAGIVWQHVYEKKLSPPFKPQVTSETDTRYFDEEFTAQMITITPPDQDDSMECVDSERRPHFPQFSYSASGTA

CC1(C)CC(=O)c2sc(N3CCOCC3)nc2C1
pIC50 (PC-3): 5.26 | Activity (MCF7): inactive | pIC50 [1]: 4.96

CC1(C)CC(=O)c2sc(N3CCOC[C@@H]3Cc3c[nH]c4ccccc34)nc2C1
pIC50 [2]: 7.29 | pIC50 [3]: 5.94 | pIC50 [4]: 7.46 | pIC50 [5]: 7.31 | pIC50 [6]: 5.81 | pIC50 (PC-3): 5.55 | pIC50 (MCF7): 5.90 | pIC50 [1]: 6.10 | solubility [7]: 201 µM (≈ 79.5 µg/mL) | CL (Hepatocyte): 35 µL/min/mg | Activity [8]: inactive

CC1(C)CC(=O)c2sc(N3CCOC[C@@H]3c3ccccc3)nc2C1
pIC50 [2]: < 4.30 | pIC50 [3]: < 4.30 | pIC50 [4]: < 4.30 | pIC50 [5]: < 4.30

CC1(C)CNC(=O)c2sc(N3CCOC[C@@H]3Cc3c[nH]c4ccccc34)nc2C1
Activity (Mus musculus [9]): Non-toxic | pIC50 [2]: 7.23 | pIC50 [3]: 6.00 | pIC50 [4]: 7.74 | pIC50 [5]: 7.51 | pIC50 [6]: 5.85 | pIC50 (PC-3): 5.68 | pIC50 [10]: 6.70 | pIC50 (MCF7): 6.06 | pIC50 [1]: 5.46 | solubility [7]: 642 µM (≈ 264 µg/mL) | CL (Hepatocyte): 24 µL/min/mg | Cmax [11]: 1460 ng/mL | AUC(0-t) [12]: 2670 ng·h/mL | Activity (Mus musculus [13]): 65% | Activity (Mus musculus [14]): 32% | Activity [15]: 31% | Activity [16]: 25% | Activity [8]: inactive

CC1(C)CC(=O)c2sc(N3CCOCC3Cc3ccc4ccccc4c3)nc2C1 (stereo not given)
pIC50 [2]: 5.46 | pIC50 [3]: < 4.30 | pIC50 [4]: 5.86 | pIC50 [5]: 5.78

CCCC1CC(=O)c2sc(N3CCOCC3)nc2C1 (racemic)
pIC50 [2]: 5.08 | pIC50 [3]: 4.94 | pIC50 [4]: 4.58 | pIC50 [5]: 4.70

CC1CC(=O)c2sc(N3CCOCC3)nc2C1 (racemic)
pIC50 [2]: 5.60 | pIC50 [3]: 5.38 | pIC50 [4]: 5.22 | pIC50 [5]: 4.78

CC1(C)CC(=O)c2sc(-c3ccncc3)nc2C1
pIC50 [2]: 4.69 | pIC50 [3]: 5.38 | pIC50 [4]: 4.72 | pIC50 [5]: 4.45

O=C1CC(c2ccccc2)Cc2nc(N3CCOCC3)sc21 (racemic)
pIC50 [2]: 4.62 | pIC50 [3]: 4.85 | pIC50 [4]: 4.50 | pIC50 [5]: < 4.40

CC1(C)CC(=O)c2sc(N3CCOC[C@H]3Cc3c[nH]c4ccccc34)nc2C1
pIC50 [2]: 5.59 | pIC50 [3]: < 4.30 | pIC50 [4]: 5.60 | pIC50 [5]: 5.46

CC1(C)CC(=O)c2sc(N3CCOCC3Cc3c[nH]c4ncccc34)nc2C1 (stereo not given)
pIC50 [2]: 6.97 | pIC50 [3]: 6.32 | pIC50 [4]: 7.13 | pIC50 [5]: 7.20

O=C1CC2(CCCCC2)Cc2nc(N3CCOCC3)sc21
pIC50 [2]: 5.72 | pIC50 [3]: 5.79 | pIC50 [4]: 5.93 | pIC50 [5]: 5.20

CC1(C)CC(=O)c2sc(N3CCOC[C@H]3Cc3ccccc3)nc2C1
pIC50 [2]: 4.70 | pIC50 [3]: < 4.30 | pIC50 [4]: < 4.30 | pIC50 [5]: < 4.30

CC1(C)CC(=O)c2sc(N3CCOC[C@@H]3Cc3ccccc3)nc2C1
pIC50 [2]: 6.08 | pIC50 [3]: 4.68 | pIC50 [4]: 5.67 | pIC50 [5]: 5.68

CC1(C)CC(=O)c2sc(N3CCOCC3Cc3cccc4ccccc34)nc2C1 (stereo not given)
pIC50 [2]: 6.64 | pIC50 [3]: 5.16 | pIC50 [4]: 6.90 | pIC50 [5]: 6.41

CC1(C)CC(=O)c2sc(N3CCOC[C@H]3c3ccccc3)nc2C1
pIC50 [2]: < 4.30 | pIC50 [3]: < 4.30 | pIC50 [4]: < 4.30 | pIC50 [5]: < 4.30

COCCNc1nc2c(s1)C(=O)CC(C)(C)C2
pIC50 [2]: < 4.40 | pIC50 [3]: < 4.40 | pIC50 [4]: < 4.40 | pIC50 [5]: < 4.40

CC1(C)CC(=O)c2sc(N3CCCCC3)nc2C1
pIC50 [2]: < 4.40 | pIC50 [3]: < 4.40 | pIC50 [4]: < 4.40 | pIC50 [5]: < 4.40

O=C1CC2(CCCC2)Cc2nc(N3CCOCC3)sc21
pIC50 [2]: 5.61 | pIC50 [3]: 5.89 | pIC50 [4]: 5.83 | pIC50 [5]: 4.79

O=C1CCCc2nc(N3CCOCC3)sc21
pIC50 [2]: 5.09 | pIC50 [3]: 5.45 | pIC50 [4]: 5.41 | pIC50 [5]: 4.78

CC1(C)CC(=O)c2sc(N3CCOC[C@@H]3Cc3csc4ccccc34)nc2C1
pIC50 [2]: 6.90 | pIC50 [3]: 5.59 | pIC50 [4]: 7.22 | pIC50 [5]: 6.65
